Measured values published in patent publication US20120058504A1, “METHODS AND APPARATUS FOR DIELECT[…] AND MEASUREMENT OF SINGLE CELLS OR OTHER PARTICLES IN MI[…]” (SIMON FRASER UNIVERSITY, priority 2009, published 2012).

Key:
CEM VLB cell = experiment: DNR accumulation in a single adhered cell, SASCA method (chip without DEP electrodes), fluorescence measurement; format: cell-based; conditions: chip translated, α-MEM medium
Method: (b) The fluorescent measurement of the adhered cell when the chip was translated into the measurement window (the peak provides the total fluorescence) and out of the measurement window (the baseline provides the background).
The SASCA method was performed for comparison with the DEP-based method. The SASCA method was performed in a chip without DEP electrodes. Cell 43 was moved into and out detection window 47 and at the same time DNR was delivered to cell retention region 30 (FIG. 21). In the SASCA method, cell movement was achieved by moving the chip with cell 43 which adheres to the bottom surface of cell retention region 30 in the chip.

[1] = tested on: MDR leukemia cancer cell (CEM VLB); experiment: DNR accumulation and MDR reversal in a single cell, DEP-based microfluidic chip (Chip IV), fluorescence measurement; conditions: DNR 35 μM, before CsA was delivered, 100-200 s, 35° C.
Method: Furthermore, DEP conditions were optimized to move a single multidrug resistant cancer cell 43 during fluorescence measurement using Chip TV (FIG. 20). Cell 43 was transferred out of fluorescent detection window 47 and back into detection window 47 by switching the voltage between electrodes AB and electrodes BC. When cell 43 was moved out of detection window 47, only the background (Fbackground) was measured. When cell 43 was moved back into detection window 47, the total fluorescence (Ftotal) was measured. By background correction, the absolute fluorescence of cell 43 (Fcell=Ftotal−Fbackground) was obtained. At the same time, a chemo-therapeutic drug, daunorubicin (DNR) was delivered to cell retention region 30 via solution reservoir 18B and microchannel 20B. The uptake of DNR inside a single MDR cancer cell 43 (CEM VLB) was monitored. The measurement results are depicted in FIG. 20b, showing many cycles of cell fluorescence (peaks) and troughs (background). […]
After DEP-based single cell chip 10 (Chip IV, FIG. 20) was used to move leukemia cancer cell 43 into and out of detection window 47 during fluorescence measurement for anticancer drug (for example, daunorubicin (DNR)) accumulation inside cell 43, chip 10 was further used for MDR reversal studies at an elevated temperature (35° C.). […]

Compound: COc1cccc2c1C(=O)c1c(O)c3c(c(O)c1C2=O)C[C@@](O)(C(C)=O)C[C@@H]3O[C@H]1C[C@H](N)[C@H](O)[C@H](C)O1 [DNR, daunorubicin]
- DNR accumulation in cell (fluorescence of cell over measurement time) (CEM VLB cell): accumulated inside the cell
- DNR accumulation in cell (cell fluorescence, peaks minus troughs) [1]: very little DNR accumulation
